Structures can show the parent of a compound that is named as a salt.
Target: T1, human metastin receptor hOT7T175 (Homo sapiens, UniProt Q969F8, L364H)
T1 construct: encoding the entire length of human metastin receptor hOT7T175; expressed in transfected cells; host or cells: CHO/dhFr- cells (ATCC #CRL-9096) stably transfected with pAKKO-hOT7T175; clone h175-16 was used as whole cells for FLIPR
Test: binding inhibiting activity: 125I-metastin (40-54) binding to cell membrane fraction of h175 KB34 cells
Details: room temperature 60 minutes, read-out: binding inhibiting activity, represented by the IC50 value
Protocol: cDNA fragments (SEQ ID NO: 2) encoding the entire length of human metastin receptor hOT7T175 were incorporated into expression vector pAKKO1.11H to produce animal cell expression plasmids pAKKO-hOT7T175. CHO/dhFr-cells (ATCC, #CRL-9096) were seeded onto 6 cm culture dishes (Becton Dickinson) at a density of 0.3×10^6 cells/dish, and cultured in the conditions of 48 hours, 37° C. and 5% CO2. 5 μg pAKKO-hOT7T175 plasmid DNA was transfected to the resultant cells by a known method (described in Example 3 of WO 00/24890) using the Cellphect Transfection Kit (Amersham, #27-9268-01). The DNA-transfected cells were cultured in the Dulbecco's modified Eagle medium (DMEM) (Sigma, #D6046) containing 10% dialyzed FBS (Biowest, #S180D), 1× Non-Essential Amino Acid (Invitrogen, #11140-050) and 50 μg/ml Gentamycin (Invitrogen, #15750-060; and cell strains stably expressing the plasmid genes were selected. The obtained 41 clones were treated with the FLIPR assay (in accordance with the method described in Example 3 of WO 00/24890), and the reactivity to the human metastin […] (Nos. 40 to 54 of the human metastin sequence; Peptide Institute, Inc., #4389-v) was evaluated. In the end, h175 KB34 cell strains were selected. By substantially the same method, h175-16 cell strains were also produced.
The h175 KB34 cells were cultured to be on the stage of 40-50% confluency using a cell factory (Nunc, #164327), and then cells were recovered in the following method.
First, the medium was disposed, and the cells were washed twice with 200 ml EDTA/PBS(−). Another 200 ml of EDTA/PBS(−) was added, and the cells were kept still for 20 minutes at room temperature until being peeled off. The cells were recovered into four 50 ml tubes (Becton Dickinson, #352070), and centrifuged (2,000 rpm, 10 min., 4° C.) by a reduced performance centrifuge (TOMY, RL-101). The supernatant was disposed, and the pellets in the four tubes were each suspended with 10 ml EDTA/PBS(−) and collected into one tube (Becton Dickinson, #352070). The pellet was further centrifuged (2,000 rpm, 10 min., 4° C.). The resultant pellet was suspended with 20 ml ice-cooled homogenizer buffer [10 mM NaHCO3, 2 mM EGTA, 0.2 mM magnesium acetate, 10 μg/ml Leupeptin (Peptide Institute, Inc., #4041), 10 μg/ml E-64 (Peptide Institute, Inc., # 4096), 100 μg/ml o-phenanthroline (Dojindo Laboratories), 90 μg/ml PMSF (Wako Pure Chemical Industries, Ltd.), 10 μg/ml Pepstatin A (Peptide Institute, Inc., #4397), pH7.3]. The cell suspension was homogenized 3 times, each for 30 seconds, using a Polytron homogenizer. The resultant homogenate was centrifuged (2,500 rpm, 10 min, 4° C.) using a high performance refrigerated centrifuge (Hitachi, Ltd., CR26H). The supernatant was recovered into a super-centrifuge tube, and super-centrifuged (30,000 rpm, 60 min, 4° C.) using a super-centrifuge (Hitachi, Ltd., SCP70H). 3 ml homogenizer buffer was added to the resultant pellet, and the pellet was suspended by pipetting. 3 ml glycerol (Wako Pure Chemical Industries, Ltd.) was added to the resultant suspension and diluted 2-folds. The resultant substance was used as a cell membrane fraction of the h175 KB34 cells. Each […] of the membrane fraction was put into a 1.5 ml tube (Eppendorf, #0030120.086), stored in a freezer (−30 C) so as not to be frozen, and used for a binding assay.
An assay buffer was prepared on the day of the test by adding, to each 100 ml of an assay basic buffer [20 mM Tris, 2.5 mM Magnesium Acetate, 2 mM EGTA, pH 7.4], 1 mg Leupeptin (Peptide Institute, Inc., 4041), 1 mg E-64 (Peptide Institute, Inc., 4096), 10 mg o-phenanthroline (Dojindo Laboratories), 9 mg PMSF (Wako Pure Chemical Industries, Ltd.) and 1 mg Pepstatin A (Peptide Institute, Inc., 4397). The prepared assay buffer was stored at 4° C. until being used. When the measurement was to be performed with no BSA, the above-described assay buffer was used. […]

T1 sequence (Q969F8 whole entry L364H): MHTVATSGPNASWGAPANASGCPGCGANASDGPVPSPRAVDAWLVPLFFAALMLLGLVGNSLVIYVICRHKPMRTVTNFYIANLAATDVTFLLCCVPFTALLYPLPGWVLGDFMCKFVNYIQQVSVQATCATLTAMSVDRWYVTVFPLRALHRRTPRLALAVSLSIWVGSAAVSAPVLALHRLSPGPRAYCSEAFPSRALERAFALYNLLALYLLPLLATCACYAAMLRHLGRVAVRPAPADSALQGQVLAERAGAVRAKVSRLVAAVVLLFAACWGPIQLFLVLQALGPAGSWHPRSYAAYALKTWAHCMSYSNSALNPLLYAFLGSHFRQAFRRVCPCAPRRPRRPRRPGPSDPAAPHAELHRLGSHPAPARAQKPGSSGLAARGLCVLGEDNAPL

| SMILES | IC50 [µM] |
| --- | --- |
| N#Cc1c(-c2cccc(NC(=O)[C@@H]3CCCC[C@H]3N)c2)cc(-c2ccc(F)cc2O)nc1NC(=O)c1ccco1 (racemic) [Example 277, N-{4-[3-({[(1SR,2SR)-2-aminocyclohexyl]carbonyl}amino)phenyl]-3-cyano-6-(4-fluoro-2-hydroxyphenyl)pyridin-2-yl}-2-furamide hydrochloride] | ≤ 10 |
| N#Cc1c(-c2cccc(NC(=O)CCN)c2)cc(-c2ccccc2O)nc1NC(=O)c1ccccc1 [Example 31, N-[4-(3-(β-alanylamino)phenyl)-3-cyano-6-(2-hydroxyphenyl)pyridin-2-yl]benzamide trifluoroacetate] | ≤ 10 |
| CN(C(=O)CN)c1cccc(-c2cc(-c3ccccc3O)nc(NC(=O)c3cccs3)c2C#N)c1 [Example 41, N-[3-cyano-4-{3-[glycyl(methyl)amino]phenyl}-6-(2-hydroxyphenyl)pyridin-2-yl]thiophene-2-carboxamide dihydrochloride] | ≤ 10 |
| N#Cc1c(-c2cc(NC(=O)CCN)ccc2Cl)cc(-c2ccccc2O)nc1NC(=O)c1cccs1 [Example 42, N-{4-[5-(β-alanylamino)-2-chlorophenyl]-3-cyano-6-(2-hydroxyphenyl)pyridin-2-yl}thiophene-2-carboxamide dihydrochloride] | ≤ 10 |
| N#Cc1c(-c2cccc(NC(=O)CCN)c2)cc(-c2cc(Cl)ccc2O)nc1NC(=O)c1cccs1 [Example 46, N-{4-[3-(β-alanylamino)phenyl]-6-(5-chloro-2-hydroxyphenyl)-3-cyanopyridin-2-yl}thiophene-2-carboxamide trifluoroacetate] | ≤ 10 |

Test system: not given
Test: not given
Details: not given

| SMILES | melting point |
| --- | --- |
| COc1cccc(O)c1-c1cc(-c2cccc(NC(=O)CCN)c2)c(C#N)c(NC(=O)c2ccccc2)n1 (as salt: trifluoroacetate) [Example 52, N-{4-[3-(β-alanylamino)phenyl]-3-cyano-6-(2-hydroxy-6-methoxyphenyl)pyridin-2-yl}benzamide trifluoroacetate] | 160 to 167 °C |
| N#Cc1c(-c2cccc(NC(=O)CCN)c2)cc(-c2ccc(Cl)cc2O)nc1NC(=O)c1cccs1 (as salt: trifluoroacetate) [Example 56, N-{4-[3-(β-alanylamino)phenyl]-6-(4-chloro-2-hydroxyphenyl)-3-cyanopyridin-2-yl}thiophene-2-carboxamide trifluoroacetate] | 206 to 209 °C |
| Nc1cccc(-c2cc(NC(=O)c3cccs3)nc(-c3ccccc3O)c2)c1 [Example 25, N-[4-(3-aminophenyl)-6-(2-hydroxyphenyl)pyridin-2-yl]thiophene-2-carboxamide] | 161 to 162 °C |
| N#Cc1c(-c2cccc(N)c2)cc(-c2ccccc2O)nc1NC(=O)c1ccccc1 [Example 28, N-[4-(3-aminophenyl)-3-cyano-6-(2-hydroxyphenyl)pyridin-2-yl]benzamide] | 259 to 261 °C |
| N#Cc1c(-c2cccc(N)c2)cc(-c2ccccc2O)nc1NC(=O)C1CCCCC1 [Example 29, N-[4-(3-aminophenyl)-3-cyano-6-(2-hydroxyphenyl)pyridin-2-yl]cyclohexanecarboxamide] | 236 to 238 °C |
| CC(C)(C)OC(=O)NCCC(=O)Nc1cccc(-c2cc(-c3ccccc3O)nc(NC(=O)c3ccccc3)c2C#N)c1 [Example 30, tert-butyl[3-({3-[2-(benzoylamino)-3-cyano-6-(2-hydroxyphenyl)pyridin-4-yl]phenyl}amino)-3-oxopropyl]carbamate] | 220 to 221 °C |
| N#Cc1c(-c2cccc(N)c2)cc(-c2ccccc2O)nc1NC(=O)c1ccc(Cl)s1 [Example 32, N-[4-(3-aminophenyl)-3-cyano-6-(2-hydroxyphenyl)pyridin-2-yl]-5-chlorothiophene-2-carboxamide] | 259 to 260 °C |
| N#Cc1c(-c2cccc(N)c2)cc(-c2ccccc2O)nc1NC(=O)c1ccsc1 [Example 33, N-[4-(3-aminophenyl)-3-cyano-6-(2-hydroxyphenyl)pyridin-2-yl]thiophene-3-carboxamide] | 257 to 260 °C |
| CCCNC(=O)c1cccc(-c2cc(-c3ccccc3O)nc(NC(=O)c3cccs3)c2C#N)c1 [Example 34, N-(3-cyano-6-(2-hydroxyphenyl)-4-{3-[(propylamino)carbonyl]phenyl}pyridin-2-yl)thiophene-2-carboxamide] | 245 to 246 °C |
| N#Cc1c(-c2cccc(C(=O)NCCO)c2)cc(-c2ccccc2O)nc1NC(=O)c1cccs1 [Example 35, N-[3-cyano-4-(3-{[(2-hydroxyethyl)amino]carbonyl}phenyl)-6-(2-hydroxyphenyl)pyridin-2-yl]thiophene-2-carboxamide] | 218 to 219 °C |
| N#Cc1c(-c2cccc(C(=O)N3CCOCC3)c2)cc(-c2ccccc2O)nc1NC(=O)c1cccs1 [Example 36, N-{3-cyano-6-(2-hydroxyphenyl)-4-[3-(morpholin-4-ylcarbonyl)phenyl]pyridin-2-yl}thiophene-2-carboxamide] | 253 to 254 °C |
| CN(C)c1cccc(-c2cc(-c3ccccc3O)nc(NC(=O)c3cccs3)c2C#N)c1 [Example 38, N-{3-cyano-4-[3-(dimethylamino)phenyl]-6-(2-hydroxyphenyl)pyridin-2-yl}thiophene-2-carboxamide] | 230 to 231 °C |
| CNc1cccc(-c2cc(-c3ccccc3O)nc(NC(=O)c3cccs3)c2C#N)c1 [Example 39, N-{3-cyano-6-(2-hydroxyphenyl)-4-[3-(methylamino)phenyl]pyridin-2-yl}thiophene-2-carboxamide] | 227 to 230 °C |
| N#Cc1c(-c2ccc(N)cc2)cc(-c2ccccc2O)nc1NC(=O)c1cccs1 [Example 48, N-[4-(4-aminophenyl)-3-cyano-6-(2-hydroxyphenyl)pyridin-2-yl]thiophene-2-carboxamide] | 292 to 293 °C |
| CC(=O)NCCC(=O)Nc1cccc(-c2cc(-c3ccc(Cl)cc3O)nc(NC(=O)c3cccs3)c2C#N)c1 [Example 59, N-[4-{3-[(N-acetyl-β-alanyl)amino]phenyl}-6-(4-chloro-2-hydroxyphenyl)-3-cyanopyridin-2-yl]thiophene-2-carboxamide] | 209 to 210 °C |
| CC(C)(C)OC(=O)c1c(-c2cccc(N)c2)cc(-c2ccccc2O)nc1NC(=O)c1ccccc1 [Example 62, tert-butyl 4-(3-aminophenyl)-2-(benzoylamino)-6-(2-hydroxyphenyl)nicotinate] | 162 to 164 °C |
| CC(C)(C)OC(=O)c1c(-c2cccc(NC(=O)CCN)c2)cc(-c2ccccc2O)nc1NC(=O)c1ccccc1 [Example 82, tert-butyl 4-[3-(β-alanylamino)phenyl]-2-(benzoylamino)-6-(2-hydroxyphenyl) nicotinate] | 247 to 249 °C |
| Cl.N#Cc1c(-c2cccc(NC(=O)CC3CCCCN3)c2)cc(-c2ccc(F)cc2O)nc1NC(=O)c1ccco1 (centres unmarked) [Example 290] | 277 to 278 °C (dec.) |

From US20090156646A1, “PYRIDYLPHENOL COMPOUND AND USE THEREOF” (TAKEDA PHARMACEUTICAL COMPANY LIMITED, priority 2005, published 2009)
